# Source: patent publication US5032398A, “Selective modification of the catalytic subunit of pertussis toxin” (priority 1986, dated 1991)
# Where “and” joins values, the source holds several entries; their conditions need not be identical. Equal entries are not always repeated. Where two headings read alike, the source gives them in different places.
# Columns and labels:
# pertussis toxin [1] = molecular target: T1, pertussis toxin (Bordetella pertussis, UniProt P04977); experiment: NADase activity in the presence of sulfhydryl reducing agents (Example Five); format: biochemical; conditions: 10 mM DTT without ATP
# T1 sequence (P04977 35-269 limits assumed): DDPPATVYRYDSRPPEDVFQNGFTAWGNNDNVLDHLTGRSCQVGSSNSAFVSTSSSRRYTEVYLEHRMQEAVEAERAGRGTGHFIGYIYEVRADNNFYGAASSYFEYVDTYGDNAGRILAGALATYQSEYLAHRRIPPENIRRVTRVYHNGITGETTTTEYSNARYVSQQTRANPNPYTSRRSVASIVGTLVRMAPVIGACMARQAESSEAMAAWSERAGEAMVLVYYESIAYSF
# pertussis toxin [2] = molecular target: T1, pertussis toxin; experiment: as above; format: biochemical
# Protocol: In the description herein, activation constants for the substances may be expressed by a numerical value (A0.5) by using an NADase assay.
# (§1) The pertussis toxin in the Examples comprised 50 μg of the toxin in a 500 μl solution of 10 mM sodium phosphate-50 mM sodium chloride-water solution having a pH of 7. The enzymatic activity was detected as the hydrolysis of nicotinamide labelled NAD and ion-exchange column chromatography to resolve the product from the substrate. Unless otherwise noted, the assay was initiated by adding 0.5 to 2.5 μg of the toxin to a reaction mixture for a final volume of 100 μl. The NADase reaction was terminated by adding 0.85 ml of ice-cold water. The entire 0.95 ml was then pipetted into a QAE-Sephadex column (chloride form) and the labelled nicotinamide eluted with 3 ml of water directly into a scintillation vial and counted. […] One unit of NADase activity is defined as 1 pmol NAD hydrolyzed per hour.
# Pertussis toxin NADase activity was assayed in the presence of various sulfhydryl reducing agents at various concentrations. The assay buffer contained 1% CHAPS and 1 mM ATP.
# pertussis toxin [3] = molecular target: T1, pertussis toxin; experiment: Inactivation of NADase activity by iodoacetate after different activator combinations (Example Seven); format: biochemical; conditions: additions to first incubation only (DTT 1 mM, ATP 1 mM, CHAPS 1%), second incubation none
# Protocol: (§2) Pertussis toxin was incubated first at 37° C. for fifteen minutes in […] buffer A (100 mM Tris-HCl, pH 8.0 with 1 mM NaEDTA). EDTA was added to chelate divalent cations, which may promote oxidation of free --SH groups. During this incubation, DTT and ATP were present in concentrations of 1 mM each, and CHAPS was present in a concentration of 1 weight percent. Labelled iodoacetate was then added ([…], 12.5 mM), and the tube incubated on ice for twenty hours. The sample was then mixed with sodium dodecylsulfate and β-mercaptoethanol, heated at 95° C. for one minute, and electrophoresed. After electrophoresis, the gel was fixed, treated with Fluorohance (Research Products International), dried and used to expose x-ray film.
# (§3) Pertussis toxin was incubated at 37° C. for fifteen minutes as described in Example Six, and then a second incubation was begun by adding 10 μl buffer A with or without 12.5 mM iodoacetate, mixing the contents of the tube and lowering the temperature to 30° C. After fifteen minutes, the tubes were shifted to an ice bath for ten minutes. A third incubation was then begun by adding 10 μl buffer A containing 200 mM DTT to those tubes containing iodoacetate to scavenge the iodoacetate. To those tubes not containing iodoacetate during the second incubation, a mixture of 200 mM DTT and 12.5 mM iodoacetate in buffer A, previously incubated for an hour on ice, was added. The third incubation was continued for one hour on ice.
# (§4) The contents of each tube were then assayed for NADase activity by adding 40 μl of a reaction mix consisting of buffer A containing carbon-14 labelled NAD (final concentration in the 100 μl final volume was 25 μM), and 50 mM sodium chloride. Different reaction mixtures with various additions were used, so that in all tubes the final concentration of ATP was 1 mM and CHAPS was 1 weight percent. The assay was conducted at 37° C. for sixty minutes, and the released labelled nicotinimide was isolated and counted. The iced controls were formed by incubating pertussis toxin (1 μg) on ice in 10 mM sodium phosphate (pH 7) and 50 mM sodium chloride during the first three incubations. […] The first three incubations were done under a nitrogen atmosphere using degassed conditions, and the second and third incubations were done under subdued light.
# pertussis toxin [4] = molecular target: T1, pertussis toxin; experiment: Effect of detergents on the NADase activity of pertussis toxin (Example Four); format: biochemical; conditions: 1 mM ATP, 10 mM DTT; for Fractional Activity with CHAPS: detergent 1 weight percent plus CHAPS 1%; for Fractional Activity with CHAPS / Fractional Activity without CHAPS: relative to 1% CHAPS alone; for Fractional Activity without CHAPS: detergent 1 weight percent
# Protocol: as §1
# The effect of detergents on the NADase activity of pertussis toxin was measured in the presence of various detergents at a concentration of 1 weight percent in either the absence or presence of the detergent CHAPS (1 percent by weight). ATP was present in all assays in a concentration of 1 mM, and DTT concentration was 10 mM. Fractional activity is shown in Table III and is defined as activity divided by activity in the presence of 1% CHAPS. The value given is the average for two separate trials, and in each trial duplicates were measured for each condition.
# pertussis toxin [5] = molecular target: T1, pertussis toxin; experiment: NADase activity of pertussis toxin after activation and treatment with alkylating reagent (Example One); format: biochemical
# From the text: The ADP-ribosylating activity of the pertussis toxin can be detected as a nicotinamide-adenine dinucleotide-glycohydrolase (NADase) activity, which can be conveniently assayed through the use of [nicotinamide-^14 C] or [nicotinamide-^3 H] NAD. NAD consists of ADP-ribose linked to nicotinimide, and thus the extent of the release of ADP-ribose from NAD is an indication of the ability of the toxin to cause ill effects. In conducting this assay of the hydrolysis of labelled NAD, ion-exchange column chromatography was employed to resolve the product from the substrate according to the method described by Moss et al., J. Biol. Chem. 258, 11879 (1983) which is incorporated herein by reference. However, several modifications to this method were employed. First, a QAE-Sephadex resin was employed, as was a [nicotinamide-^3 H] NAD. Specifically, a 2 ml QAE-Sephadex column was first washed with 10 ml 1NHCl, followed by 10 ml H2 O, 20 ml 0.5M Tris-HCl pH 7.0, and 40 ml H2 O. [^3 H] NAD was applied, and the column washed with 20 ml water to elute impurities. Purified [^3 H] NAD was eluted with 0.25M NaCl, and stored in small aliquots at -70° C. The purified [^3 H] NAD contributed 50 mM NaCl (final concentration) to the NADase assays.
# Before the end of the reaction, 2 ml QAE-Sephadex columns were treated with 10 ml 0.1M imidazole-HCl pH 7.0 with 1.0M NaCl, followed by 40 ml water. The NADase reaction (in 100 μl) was terminated by adding 0.85 ml of ice-cold water, and the entire 0.95 ml was pipetted into a treated QAE column. The labelled nicotinamide was then eluted with 3 ml of water directly into a scintillation vial and counted. The absorbed labelled NAD was then eluted into radioactive waste with 10 ml 0.1M imidazole-HCl pH 7.0 with 1.0M NaCl, and the column stored partially immersed in a water bath until the next assay.
# In order to determine if any active toxin remained after the inactivation, a large excess of sulfhydryl reductant was added to each tube to scavenge unreacted sulfhydryl reagent. The NADase activity of the preparation was then measured. The three incubations were performed under a nitrogen atmosphere using degassed solutions to prevent oxidation of sulfhydryl groups which would prevent the sulfhydryl reagent from modifying the sulfhydryl group.
# as §1
# One-half microgram of pertussis toxin was incubated for thirty minutes at […] in 100 mM Tris-HCl (pH 8.0), with or without activators, in a volume of 50 μl. When present, ATP and pyrophosphate were present in a concentration of 2 mM, CHAPS at 2 weight percent, and DTT in a concentration of either 2 mM (trial 1) or 1 mM (trial 2). 10 μl of water with or without iodoacetate or N-ethylmaleimide was then added and a second incubation conducted at 30° C. for either thirty minutes (trial 1) or fifteen minutes (trial 2). After this incubation, 10 μl of 200 mM DTT was added to each tube, and the tubes were incubated for thirty (trial 1) or sixty minutes (trial 2) on ice to scavenge the iodoacetate or N-ethylmaleimide.
# pertussis toxin [6] = molecular target: T1, pertussis toxin; experiment: Inactivation of NADase activity by sulfhydryl reagents, 6 minutes or 18 hours at 0-4° (Example Eight); format: biochemical
# Protocol: as §3, §4
# The procedure followed in Example Seven was repeated for this study, except that N-ethylmaleimide, chloroacetamide or chloroacetate were substituted for iodoacetate. After the 30° C. incubation, the tubes were either incubated for six minutes or eighteen hours at 0°-4° C. before the 10 μl of 200 mM DTT (with or without quenched reagent) was added. Those tubes receiving the DTT after six minutes were incubated for nineteen hours at 0°-4° C. prior to the NADase assay. Those receiving the DTT after eighteen hours were incubated with DTT for one hour, as in Example Seven. The tubes were then assayed for NADase activity at the same time.
# [7] = tested on: S1 -S5 subunits of the toxin; experiment: Labelled iodoacetate incorporation into toxin subunits, electrophoresis and x-ray film (Examples Two and Six); parameters: species or system Bordetella pertussis; conditions: CHAPS added, compared with DTT and ATP or DTT alone
# Sequence of S1 -S5 subunits of the toxin (P04977 35-269 limits assumed): as above
# Sequence of S1 -S5 subunits of the toxin (P04978 28-226 limits assumed, further chain): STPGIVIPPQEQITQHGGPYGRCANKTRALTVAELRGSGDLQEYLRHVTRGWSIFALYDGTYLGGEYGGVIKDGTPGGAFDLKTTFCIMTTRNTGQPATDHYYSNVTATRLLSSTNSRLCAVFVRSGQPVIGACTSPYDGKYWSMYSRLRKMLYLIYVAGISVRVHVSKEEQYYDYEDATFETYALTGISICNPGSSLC
# Sequence of S1 -S5 subunits of the toxin (P04979 29-227 limits assumed, further chain): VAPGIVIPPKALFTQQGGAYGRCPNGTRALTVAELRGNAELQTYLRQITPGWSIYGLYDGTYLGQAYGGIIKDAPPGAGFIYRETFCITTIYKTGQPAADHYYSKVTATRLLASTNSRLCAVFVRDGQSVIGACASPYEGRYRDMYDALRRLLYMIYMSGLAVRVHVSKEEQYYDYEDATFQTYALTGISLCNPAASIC
# Sequence of S1 -S5 subunits of the toxin (P0A3R5 43-152 limits assumed, further chain): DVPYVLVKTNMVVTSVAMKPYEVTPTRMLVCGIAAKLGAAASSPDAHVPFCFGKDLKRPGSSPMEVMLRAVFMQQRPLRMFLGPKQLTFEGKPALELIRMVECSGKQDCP
# Sequence of S1 -S5 subunits of the toxin (P04981 35-133 limits assumed, further chain): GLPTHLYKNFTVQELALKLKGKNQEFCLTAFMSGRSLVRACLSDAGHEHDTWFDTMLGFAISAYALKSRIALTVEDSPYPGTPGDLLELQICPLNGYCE
# Protocol: Pertussis toxin (2.5 μg) was incubated for thirty minutes at 37° C. in 50 μl of 50 mM Tris-HCl (pH 8.0) with or without combinations of the activators ATP, CHAPS and DTT. During this incubation, ATP was 1 mM, CHAPS was 1 weight percent, and DTT was 0.5 mM, when present. Following this incubation, 75 nmol (1.34 microCi of iodo[^14 C]acetate and 25 μl of water were then added, and the tubes incubated for an additional thirty minutes under nitrogen gas at 30° C. in the dark. This labelling reaction was terminated by adding 1 ml of ice-cold water containing 7.5 mM non-radioactive iodoacetate, 2.5 μg bovine serum albumin, and 150 μg sodium deoxycholate. After ten minutes on ice, 100 μl 72% triochloroacetic acid was added, and the precipitate recovered by centrifugation. Sodium dodecylsulfate and beta-mercaptoethanol were added, the sample heated to 95° C. for one minute, and then electrophoresed using 15% polyacrylamide gels. The fixed gels were then treated, dried and used to expose x-ray film at -70° C.
# as §2
# [8] = first incubation: ATP, DTT, CHAPS, 6 minutes at 0-4°
# [9] = first incubation: ATP, DTT, CHAPS, 18 hours at 0-4°
molecule,measurement,setting,value
"O[C@H](CS)[C@H](O)CS (racemic) [DTT, dithiothreitol]",NADase activity,pertussis toxin [1],18 U per microgram toxin and 36 U per microgram toxin
same,"Effectiveness as sulfhydryl reductant to prepare the toxin for deactivation, in words",pertussis toxin [2],effective
same,NADase activity,pertussis toxin [2]; 10 mM DTT with 1 mM ATP,147 U per microgram toxin and 195 U per microgram toxin
same,EC50,pertussis toxin [2]; read-out: concentration for half of the maximum effect (A0.5),200 µM
same,EC100,pertussis toxin [2]; read-out: concentration showing full activation,1000 µM
same,remaining activity at 1000 µM,pertussis toxin [3]; read-out: Percent NADase activity relative to iced control,38%
NP-40,Fractional Activity with CHAPS,pertussis toxin [4],0.97
same,Fractional Activity without CHAPS,pertussis toxin [4],0.54
N[C@@H](CS)C(=O)O [cysteine],"Effectiveness as sulfhydryl reductant to prepare the toxin for deactivation, in words",pertussis toxin [2],effective
same,activation constant,pertussis toxin [2]; in the presence of ATP and CHAPS,the same constant
Triton X-100,Fractional Activity with CHAPS,pertussis toxin [4],1.05
same,Fractional Activity without CHAPS,pertussis toxin [4],0.58
N[C@@H](CCC(=O)N[C@@H](CS)C(=O)NCC(=O)O)C(=O)O [glutathione],"Effectiveness as sulfhydryl reductant to prepare the toxin for deactivation, in words",pertussis toxin [2],effective
same,EC50,"pertussis toxin [2]; in the presence of ATP and CHAPS, read-out: activation constant",2000 µM
CCN1C(=O)C=CC1=O [N-ethylmaleimide],NADase activity (%) of the activity of toxin treated the same way without alkylating agent,"pertussis toxin [5]; first incubation: DTT 1 mM, CHAPS 2%, ATP 2 mM, Experiment #2, second incubation 15 min at 30° C, 25 μM NAD",13%
same,NADase activity (%) of the activity of toxin treated the same way without alkylating agent,"pertussis toxin [5]; first incubation: DTT 1 mM, CHAPS 2%, pyrophosphate 2 mM, Experiment #2, second incubation 15 min at 30° C, 25 μM NAD",46%
same,NADase activity (%) of the activity of toxin treated the same way without alkylating agent,"pertussis toxin [5]; first incubation: DTT 2 mM, CHAPS 2%, ATP 2 mM, Experiment #1, second incubation 30 min at 30° C, 125 μM NAD",11%
same,NADase activity (%) of the activity of toxin treated the same way without alkylating agent,"pertussis toxin [5]; first incubation: DTT 2 mM, CHAPS 2%, pyrophosphate 2 mM, Experiment #1, second incubation 30 min at 30° C, 125 μM NAD",60%
same,NADase activity (%) of the activity of toxin treated the same way without alkylating agent,"pertussis toxin [5]; first incubation: none, Experiment #1, second incubation 30 min at 30° C, 125 μM NAD",90%
same,NADase activity (%) of the activity of toxin treated the same way without alkylating agent,"pertussis toxin [5]; first incubation: none, Experiment #2, second incubation 15 min at 30° C, 25 μM NAD",106%
same,NADase activity,pertussis toxin [6]; [8],16 pmol per μg per hour
same,percent of activity with no addition to second incubation,pertussis toxin [6]; [8],15%
same,NADase activity,pertussis toxin [6]; [9],10 pmol per μg per hour
same,percent of activity with no addition to second incubation,pertussis toxin [6]; [9],10%
"C[C@H](CCC(=O)NCCC[N+](C)(C)CCCS(=O)(=O)[O-])[C@H]1CC[C@H]2[C@@H]3[C@H](O)C[C@@H]4C[C@H](O)CC[C@]4(C)[C@H]3C[C@H](O)[C@]12C [CHAPS, 3-[(3-cholamidopropyl)-dimethylammonio]-1-propane sulfonate]",NADase activity in the presence of CHAPS alone,"pertussis toxin [4]; 1% CHAPS, two trials",153 units per microgram and 158 units per microgram
same,Percent NADase activity relative to iced control,pertussis toxin [3],106
same,NADase activity,"pertussis toxin [6]; additions to first incubation only, second incubation none, 18 hours at 0-4°",186 pmol per μg per hour
same,Peak indicating the alkylation of the S1 subunit,[7],increases
same,Peaks indicating alkylation of the S2 and S3 subunits,[7],substantially decreases
